The text below walks through data of patent publication US20220378923A1, “BET DEGRADER” (KYOWA KIRIN CO., LTD., priority 2019, published 2022).

One assay relates to DCAF16 KO SU-DHL-4 cells. Put plainly: Inhibitory effect on cell viability using SU-DHL-4 DCAF16 knock out (KO) cell line (Test Example 6). It counts as cell-based, human. To be noted: for Activity Attenuation Ratio: (SU-DHL-4 DCAF16 KO IC50)/(SU-DHL-4 WT IC50); for IC50: DCAF16 KO SU-DHL-4 cells, 72 hours, Cell Counting Kit-8, 50% inhibition of cell viability. The method, then:
The human DLBCL cell line SU-DHL-4 was purchased from DSMZ. SU-DHL-4 was passaged using RPMI1640 medium containing 10 vol % FBS. After the Cas9 gene was introduced, the cells were cultured in the above medium containing 0.01 mg/mL blasticidin (InvivoGen, Cat No. ant-bl-1). After introduction of sgRNA, the cells were cultured in the above medium containing 0.0001 mg/mL puromycin dihydrochloride (SIGMA, Cat No. P9020-10 ML). The culture conditions were 37° C. and 5% CO2.
Edit-R Lentiviral hEF1α-Blast-Cas9 Nuclease Particles (Cat No. VCAS10126) was used as a lentivirus for expressing Cas9 in human cell lines. Three types of Edit-R Human DCAF16 Lentiviral sgRNA (Cat No. VSGH10142-246568260; DNA target sequence […] (SEQ ID NO: 1), Cat No. VSGH10142-246568262; DNA target sequence […] (SEQ ID NO: 2) and Cat No. VSGH10142-246568263; DNA target sequence […] (SEQ ID NO: 3)) were used as lentiviruses for introducing DCAF16 sgRNA. As a control, Edit-R Lentiviral sgRNA Non-targeting Control #1 (Cat No. VSGC10215) was used. All lentiviruses were purchased from Dharmacon and stored at −80° C. until use.
SU-DHL-4 was suspended at 4×10^5 cells/mL in RPMI 1640 without FBS, 0.25 mL of the suspension was added to a 24-well plate, and the cells were cultured overnight. The next day, 0.003 mL of virus particles of Edit-R Lentiviral hEF1α-Blast-Cas9 Nuclease Particles was added. After culturing in a CO2 incubator for 4 hours, RPMI 1640 containing 0.75 mL of 10 vol % FBS was added. After culturing in a CO2 incubator for about 48 hours, the medium was replaced with RPMI1640 containing 10 vol % FBS, and the cells were cultured in a CO2 incubator. Four days after infection, the medium was replaced with a medium containing 0.01 mg/mL blasticidin (InvivoGen, Cat No. ant-bl-1). Then, the cells were passaged once every 2 to 3 days and thus twice in total (that is, cultured for 1 week) to obtain SU-DHL-4/Cas9, which is a Cas9-introduced SU-DHL-4 cell line.
(6) sgRNA infection SU-DHL-4/Cas9 was suspended at 4×10^5 cells/mL in RPMI 1640 without FBS, 0.25 mL of the suspension was added to a 24-well plate, and the cells were cultured overnight. The next day, a total of 4 types of sgRNA virus particles, 1 type of Control and 3 types targeting DCAF16 were added to the respective wells by 0.03 mL. After culturing in a CO2 incubator for 5 hours, RPMI 1640 containing 0.75 mL of 10 vol % FBS was added.
After culturing in a CO2 incubator for about 48 hours, the medium was replaced with RPMI1640 containing 10 vol % FBS, and the cells were cultured in a CO2 incubator. Four days after infection, the medium was replaced with a medium supplemented with 0.01 mg/mL puromycin dihydrochloride (SIGMA, Cat No. P9020-10 ML). Then, the cells were passaged once or twice a week for 2 weeks, and a cell stock was prepared using CELLBANKER I plus (Takara Bio, Cat No. CB-021). Cell line stock was stored at −80° C. Using Edit-R Lentiviral sgRNA Non-targeting Control #1, the Negative Control sequence was introduced into the SU-DHL-4 cell line, which was referred to as SU-DHL-4 NC strain, and using Edit-R Human DCAF16 Lentiviral sgRNA, […] sequence (SEQ ID NO: 1) was introduced into the SU-DHL-4 cell line, which was referred to as SU-DHL-4 DCAF16 KO1 strain, […] sequence (SEQ ID NO: 2) was introduced into the SU-DHL-4 cell line, which was referred to as SU-DHL-4 DCAF16 KO2 strain, and […] sequence (SEQ ID NO: 3) was introduced into the SU-DHL-4 cell line, which was referred to as SU-DHL-4 DCAF16 KO 3 strain.
The cultured DCAF16 KO SU-DHL-4 cells were seeded at 2000 cells/well in a transparent 384-well plate (Code No. 781182, Greiner bio-one). After seeding, the cells were pre-cultured at 37° C. in a carbon dioxide gas incubator for 18 to 25 hours. […]

In a further assay the test system is SU-DHL-4 cells. The assay can be described thus: Inhibitory effect on cell viability in SU-DHL-4 cell line (Test Example 1). The format is cell-based, human. Conditions: 72 hours; for IC50: SU-DHL-4 (wild type) cells, calculated using the measurement results of test example 1, read-out: SU-DHL-4 WT IC50; for IC90: SU-DHL-4 cells, Cell Counting Kit-8, concentration showing 90% inhibition of cell viability, read-out: SU-DHL-4 Cell Viability Inhibition Rate IC90. The procedure, abridged:
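SU-DHL-4 cells were grown at 37° C. under 5% CO2 in RPMI1640 with 10 vol % heat-inactivated FBS plus penicillin/streptomycin, seeded and precultured for 18 to 25 hours, then exposed to test compound at 0.1 vol % DMSO for 72 hours. Viability was read with Cell Counting Kit-8 by absorbance at 450 nm.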

SMILES strings stand for the structures. Like-named read-outs stand apart in the source and are kept apart here.

Turning to `CCC(=O)N1c2ccccc2[C@H](Nc2ccc(NC(=O)C#CCNC(=O)C3CCC(N[C@@H]4C[C@H](C)N(C(=O)CC)c5ccccc54)CC3)cc2)C[C@@H]1C` (relative stereo) [Compound 8g, (1R,4r)-4-(((2S*,4R*)-2-Methyl-1-propionyl-1,2,3,4-tetrahydroquinolin-4-yl)amino)-N-(4-((4-(((2S,4R)-2-methyl-1-propionyl-1,2,3,4-tetrahydroquinolin-4-yl)amino)phenyl)amino)-4-oxobut-2-yn-1-yl)cyclohexane-1-carboxamide], in the assay on DCAF16 KO SU-DHL-4 cells, the “Activity Attenuation Ratio” value came to 3174 and the 50% inhibitory concentration (IC50) is 26 nM. In the assay with SU-DHL-4 cells, the IC50 was 0.008 nM and the IC90 amounted to 0.01 nM.

For the compound `CCC(=O)N1c2ccccc2[C@H](N[C@H]2CC[C@H](NC(=O)C#CCNC(=O)[C@H]3CC[C@H](N[C@@H]4C[C@H](C)N(C(=O)CC)c5ccccc54)CC3)CC2)C[C@@H]1C` (relative stereo) [Compound 9d, (1R,4R)-4-(((2S*,4R*)-2-Methyl-1-propionyl-1,2,3,4-tetrahydroquinolin-4-yl)amino)-N-(4-(((1R,4R)-4-(((2S,4R)-2-methyl-1-propionyl-1,2,3,4-tetrahydroquinolin-4-yl)amino)cyclohexyl)amino)-4-oxobut-2-yn-1-yl)cyclohexane-1-carboxamide], in the assay with DCAF16 KO SU-DHL-4 cells, the “Activity Attenuation Ratio” value is 348 and the midpoint of inhibition, the IC50, lay at 263 nM. For the same compound, in the assay with SU-DHL-4 cells, the IC50 was 0.75 nM and the IC90 is 0.93 nM.

Regarding `CCC(=O)N1c2ccccc2[C@H](Nc2ccc(-n3cc(CNC(=O)N4CCC(N[C@@H]5C[C@H](C)N(C(=O)CC)c6ccccc65)CC4)nn3)cc2)C[C@@H]1C` (relative stereo) [Compound 10b, 4-(((2S*,4R*)-2-Methyl-1-propionyl-1,2,3,4-tetrahydroquinolin-4-yl)amino)-N-((1-(4-(((2S,4R)-2-methyl-1-propionyl-1,2,3,4-tetrahydroquinolin-4-yl)amino)phenyl)-1H-1,2,3-triazol-4-yl)methyl)piperidine-1-carboxamide], the “Activity Attenuation Ratio” value in the assay with DCAF16 KO SU-DHL-4 cells was found to be 524. Also, the IC50 in the assay with DCAF16 KO SU-DHL-4 cells (Homo sapiens) is 180 nM; with SU-DHL-4 cells (Homo sapiens), 0.34 nM.

Take `CCC(=O)N1c2ccccc2[C@H](NCc2ccc(C(=O)N3CC(C(=O)Nc4ccc(N[C@@H]5C[C@H](C)N(C(=O)CC)c6ccccc65)cc4)C3)cc2)C[C@@H]1C` (relative stereo) [Compound 10g, 1-(4-((((2S*,4R*)-2-Methyl-1-propionyl-1,2,3,4-tetrahydroquinolin-4-yl)amino)methyl)benzoyl)-N-(4-(((2S,4R)-2-methyl-1-propionyl-1,2,3,4-tetrahydroquinolin-4-yl)amino)phenyl)azetidine-3-carboxamide]: the “Activity Attenuation Ratio” value in the assay on DCAF16 KO SU-DHL-4 cells was 154. Besides, the IC50 was 142 nM in the assay on DCAF16 KO SU-DHL-4 cells (Homo sapiens) and 0.91 nM with SU-DHL-4 cells (Homo sapiens).

Take `CCC(=O)N1c2ccccc2[C@H](NCCCCC(=O)NCc2cn(-c3ccc(N[C@@H]4C[C@H](C)N(C(=O)CC)c5ccccc54)cc3)nn2)C[C@@H]1C` (relative stereo) [Compound 12f, 5-(((2S*,4R*)-2-Methyl-1-propionyl-1,2,3,4-tetrahydroquinolin-4-yl)amino)-N-((1-(4-(((2S,4R)-2-methyl-1-propionyl-1,2,3,4-tetrahydroquinolin-4-yl)amino)phenyl)-1H-1,2,3-triazol-4-yl)methyl)pentane amide]: in the assay with DCAF16 KO SU-DHL-4 cells, the “Activity Attenuation Ratio” value is more than 40284 and the IC50 is more than 10000 nM. In the assay on SU-DHL-4 cells, the IC50 is 0.24 nM and the IC90 was determined as 0.42 nM.

In the case of `CCC(=O)N1c2ccccc2[C@H](NCCCCCCCC(=O)Nc2ccc(N[C@@H]3C[C@H](C)N(C(=O)CC)c4ccccc43)cc2)C[C@@H]1C` (relative stereo) [Compound 12h, 8-(((2S*,4R*)-2-Methyl-1-propionyl-1,2,3,4-tetrahydroquinolin-4-yl)amino)-N-(4-(((2S,4R)-2-methyl-1-propionyl-1,2,3,4-tetrahydroquinolin-4-yl)amino)phenyl)octanamide], in the assay with DCAF16 KO SU-DHL-4 cells, the “Activity Attenuation Ratio” value worked out at 191. Besides, the IC50 with DCAF16 KO SU-DHL-4 cells (Homo sapiens) is 595 nM; in the assay with SU-DHL-4 cells (Homo sapiens), 3.11 nM.

In the case of `CCC(=O)N1c2ccccc2[C@H](NCC23CCC(C(=O)N4CC(C(=O)Nc5ccc(N[C@@H]6C[C@H](C)N(C(=O)CC)c7ccccc76)cc5)C4)(CC2)CC3)C[C@@H]1C` (relative stereo) [Compound 17o, 1-(4-((((2S,4R)-2-Methyl-1-propionyl-1,2,3,4-tetrahydroquinolin-4-yl)amino)methyl)bicyclo[2.2.2]octane-1-carbonyl)-N-(4-(((2S*,4R*)-2-methyl-1-propionyl-1,2,3,4-tetrahydroquinolin-4-yl)amino)phenyl)azetidine-3-carboxamide], the “Activity Attenuation Ratio” value in the assay on DCAF16 KO SU-DHL-4 cells came out at 670. The compound also registered an IC50 in the assay with DCAF16 KO SU-DHL-4 cells (Homo sapiens) of 522 nM. Also, in the assay on SU-DHL-4 cells (Homo sapiens), the IC50 is 0.78 nM and the IC90 was found to be 2.18 nM.

On to `Cc1sc2c(c1C)C(c1ccc(C(=O)NCCCNC(=O)c3ccc(C4=N[C@@H](CC(=O)OC(C)(C)C)c5nnc(C)n5-c5sc(C)c(C)c54)cc3)cc1)=N[C@@H](CC(=O)OC(C)(C)C)c1nnc(C)n1-2` [Compound 1b, Di-tert-butyl 2,2′-[(6S,6′S)-({[propane-1,3-diylbis(azanediyl)]bis(carbonyl)}bis(4,1-phenylene))bis(2,3,9-trimethyl-6H-thieno[3,2-f][1,2,4]triazolo[4,3-a][1,4]diazepine-4,6-diyl)]diacetate], for which the “Activity Attenuation Ratio” value with DCAF16 KO SU-DHL-4 cells amounted to 56. The IC50 in the assay on DCAF16 KO SU-DHL-4 cells (Homo sapiens) was 36.7 nM; in the assay with SU-DHL-4 cells (Homo sapiens) it was 0.65 nM.

Take `CCC(=O)N1c2ccccc2[C@H](Nc2ccc(C(=O)N3CC4CC3CN4C(=O)c3ccc(N[C@@H]4C[C@H](C)N(C(=O)CC)c5ccccc54)cc3)cc2)C[C@@H]1C` [Compound 1k, 1,1′-{(2S,2'S,4R,4′R)-{[(2,5-Diazabicyclo[2.2.1]heptane-2,5-dicarbonyl)bis(4,1-phenylene)]bis(azanediyl)}bis[2-methyl-3,4-dihydroquinoline-4,1(2H)-diyl]}bis(propan-1-one)]: the “Activity Attenuation Ratio” value with DCAF16 KO SU-DHL-4 cells was 34. The IC50 with DCAF16 KO SU-DHL-4 cells (Homo sapiens) is 7.42 nM; in the assay on SU-DHL-4 cells (Homo sapiens), 0.22 nM.

The term IC50 denotes the concentration that gives 50% inhibition. Broadly, the IC90 is the point of the concentration-response curve where the effect stands at 90%.
